“Also recorded” adds a separate entry of the source. Read-outs that look alike come from different tables or passages of the source.
What was measured:
[1] = tested on: EMT markers (mesenchymal markers, ECM) in RPE cells (ARPE-19); test: Change in expression of EMT markers (real-time PCR) in EMT-induced RPE cells; format: cell-based, human; conditions: for EMT suppression (FIG. 3 to FIG. 7) / Expression of EMT markers other than the ten common markers / Expression of Snail, Slug, CDH3, MMP1, MMP7, COL5A3, COL6A3, LAMC2, HMMR, TNC / Enhancement of expression of Fibronectin, Snail and vimentin (mesenchymal markers): EMT-induced ARPE-19, 48 hours; for EMT suppression (FIG. 3 to FIG. 7) / Expression of EMT markers other than the ten common markers / Expression of Snail, Slug, CDH3, MMP1, MMP7, COL5A3, COL6A3, LAMC2, HMMR, TNC: oxaprozin 300 μM, epalrestat 30 μM, zafirlukast 3 μM, amlexanox 30 μM, zaltoprofen 30 μM; for Enhancement of expression of Fibronectin, Snail and vimentin (mesenchymal markers): compound at Cmax, ½ of Cmax or ¼ of Cmax; for Expression of EMT markers at the time of EMT induction (FIG. 8 to FIG. 12): flufenamic acid aluminum 28 μM, mefenamic acid 39 μm, sulindac 100 μM, tiaprofenic acid 1000 μM, seratrodast 31 μM
Method: RPE cells (ARPE-19) were seeded on a plate, and incubated for 5 days at 37° C. For the RPE cells, EMT was induced in the conditions described in Test example 1-1, and respective compounds (oxaprozin, epalrestat, zafirlukast, amlexanox, zaltoprofen) were added simultaneously, and the cells were collected after 48 hours from induction of EMT. As a control, a sample to which a compound to be assessed (test drug) is not added was used. The collected cells were washed with PBS, and 350 μL of an RLT buffer was added to prepare a lysate for RNA extraction. The respective compounds were used in the following concentrations. Oxaprozin: 300 μM, epalrestat: 30 μM, zafirlukast: 3 μM, amlexanox: 30 μM, zaltoprofen: 30 μM. Total RNA was extracted from the lysate using an RNeasy Micro kit (QIAGEN, #74004), and from 2 μg of the obtained RNA, cDNA was prepared using a SuperScript III First-Strand Synthesis SuperMix for qRT-PCR (Invitrogen, #11752-250). Using 50 ng of the obtained cDNA as a template, a real-time PCR (ABI Prism 7500 Sequence Detection System) was conducted according to the manufacturer's protocol, and expression of mRNA of each gene was quantified. Specific primers for respective genes were purchased from Invitrogen. Ct (Threshold Cycle) value of each gene was calculated as a percentage to a non-treated sample after normalization by endogenous control.
Five compounds (flufenamic acid aluminum (addition concentration: 28 μM (Cmax)), mefenamic acid (addition concentration: 39 μm (Cmax)), sulindac (addition concentration: 100 μM), tiaprofenic acid (addition concentration: 1000 μM), and seratrodast (addition concentration: 31 μM (Cmax))) were assessed for change in expression of EMT markers in the same manner as in Test example 2-1. The results are shown in FIG. 8 to FIG. 12, respectively.
(§1) RPE cells (ARPE-19) were seeded on a plate, and incubated for 5 days at 37° C. […] Each compound was added in a concentration of Cmax, ½ of Cmax or ¼ of Cmax. As a control, a sample to which a compound to be assessed (test drug) is not added was used. The collected cells were washed with PBS, and 350 μL of an RLT buffer was added to prepare a lysate for RNA extraction. Total RNA was extracted from the lysate using an RNeasy Micro kit (QIAGEN, #74004), and from 2 μg of the obtained RNA, cDNA was prepared using a SuperScript III First-Strand Synthesis SuperMix for qRT-PCR (Invitrogen, #11752-250). Using 50 ng of the obtained cDNA as a template, a real-time PCR (ABI Prism 7500 Sequence Detection System) was conducted according to the manufacturer's protocol, and expression of mRNA of each gene was quantified. Specific primers for respective genes were purchased from Invitrogen. Ct (Threshold Cycle) value of each gene was calculated as a percentage to a non-treated sample after normalization by endogenous control. For each result, a significant test (Student t test) was conducted, and when p<0.05, the result was marked with “*”, and when p<0.01, the result was marked with “**”.
RPE cells (ARPE-19) were seeded on a plate, and incubated for 5 days at 37° C. For the RPE cells, EMT was induced in the conditions described in Test example 5-1, and the five representative compounds (oxaprozin, epalrestat, zafirlukast, amlexanox, zaltoprofen) were added simultaneously, and the cells were collected after 48 hours from induction of EMT. As a control, a sample to which a compound to be assessed (test drug) is not added was used. The collected cells were washed with PBS, and 350 μL of an RLT buffer was added to prepare a lysate for RNA extraction. Total RNA was extracted from the lysate using an RNeasy Micro kit (QIAGEN, # 74004), and from 2 μg of the obtained RNA, cDNA was prepared using a SuperScript III First-Strand Synthesis SuperMix for qRT-PCR (Invitrogen, # 11752-250). […]

RPE cells (ARPE-19) = test: Focus (drusen-like structure) formation suppression in EMT induction model of RPE cells; format: cell-based, human; conditions: for Suppression of drusen-like structure formed in the RPE cell model: FIG. 35 to 39; for IC50: Homo sapiens
Method: RPE cells (ARPE-19) were seeded on a plate, and incubated for 5 days at 37° C. […] As a control of EMT induction, a sample to which a compound to be assessed (test drug) is not added was used. After 48 hours from EMT induction, the cells were fixed by treating with a 4% paraformaldehyde solution for 30 minutes at room temperature, and then washed three times with PBS. The cells were treated with a 0.2% Triton-X/PBS solution for 5 minutes, and washed three times with PBS. […] The fluorescent-stained cells were imaged by using an Image Express Micro (available from Molecular Devices), and digitized by using a MetaXpress2.0 (available from Molecular Devices). By analyzing the degree of formation of Focus (Focus level) from the numerical data, a Focus formation suppressing rate was calculated according to the following Formula 1 on the basis of the numerical value at the time of no addition of a compound, and the EMT suppressive effect in each compound was verified. The degree of formation of Focus (Focus level) was determined according to the number and the volume of Focus as indexes.
IC50 in the table was calculated using the following Formula 2.
A: Higher concentration sandwiching 50%
B: Lower concentration sandwiching 50%
C: Inhibition rate at lower concentration sandwiching 50%
D: Inhibition rate at higher concentration sandwiching 50%
RPE cells (ARPE-19) were seeded on a plate, and incubated for 5 days at 37° C. […] As a control of EMT induction, a sample to which a compound to be assessed (test drug) is not added was used. The cells after observation were fixed by treating with a 4% paraformaldehyde solution for 30 minutes at room temperature, and then washed three times with PBS. The cells were treated with a 0.2% Triton-X/PBS solution for 5 minutes, and washed three times with PBS. […] The fluorescent-stained cells were imaged by using an Image Express Micro (available from Molecular Devices), and digitized by using a MetaXpress2.0 (available from Molecular Devices). By analyzing the degree of formation of Focus from the numerical data, a Focus formation suppressing rate was calculated on the basis of the case without addition of a compound and the case without EMT induction, and the EMT suppressive effect in each compound was verified. […] After washing three times with methanol, the cells were dried for 3 hours at room temperature. The dried cells were observed under a microscope.

[2] = cited from earlier work
VEGF = test: Change in expression of VEGF mRNA (real-time PCR) in EMT-induced RPE cells; format: cell-based, human; conditions: EMT-induced ARPE-19, 48 hours, compound at Cmax, ½ of Cmax or ¼ of Cmax
Method: as §1
The results are shown in FIG. 16 or FIG. 17, respectively.
The VEGF suppressive effect was assessed using the cell model as described above in the same manner as in Test example 2-3. The results are shown in FIG. 18 to FIG. 20, respectively.

[3] = Table 1, EMT-induced ARPE-19, compound added simultaneously, 48 hours, read-out: IC50 (Focus formation suppressing rate, EMT suppressive effect)
[4] = Test example 7, EMT-induced ARPE-19, 48 hours, read-out: IC50 values in the drusen-like structure suppressing tests
[5] = Pharmaceutical Interview Form, single-dose administration, read-out: Cmax
[6] = Table 3, from the interview form and the package insert of each drug, read-out: Cmax
[7] = quoted in Test examples 2-3, 2-4, 2-5, read-out: Cmax (as quoted in the VEGF test examples)
[8] = RPE, Table 2, same manner as Test example 6-1, read-out: IC50 (Focus formation suppressing rate, EMT suppressive effect)

CC(C)c1ccc2oc3nc(N)c(C(=O)O)cc3c(=O)c2c1 [Amlexanox, amlexanox]
EMT suppression (FIG. 3 to FIG. 7) [1]: significantly suppress EMT
Expression of EMT markers other than the ten common markers [1]: decrease in expression was observed in ZEB2, CDH2, MMP3, COL1A1, and COL13A1
Expression of Snail, Slug, CDH3, MMP1, MMP7, COL5A3, COL6A3, LAMC2, HMMR, TNC [1]: suppressed expression
Suppression of drusen-like structure formed in the RPE cell model (RPE cells (ARPE-19); EMT-induced ARPE-19, 48 hours): suppresses a drusen-like structure formed in the RPE cell model in a concentration-dependent manner
IC50 (RPE cells (ARPE-19); [3]): 32.5 µM
IC50 (RPE cells (ARPE-19); [4]): 32.5 µM
Cmax [2, 5]: 16 µM
Cmax [2, 6]: 16 µM

CC(/C=C1\SC(=S)N(CC(=O)O)C1=O)=C\c1ccccc1 [Epalrestat, epalrestat]
IC50 (RPE cells (ARPE-19); [3]): 16.9 µM
IC50 (RPE cells (ARPE-19); [4]): 16.9 µM
Cmax [2, 5]: 12.2 µM
Cmax [2, 6]: 12.2 µM
Cmax [2, 7]: 12.2 µM

CCc1cccc2c3c([nH]c12)C(CC)(CC(=O)O)OCC3 (stereo not shown) [Etodolac, etodolac]
Enhancement of expression of Fibronectin, Snail and vimentin (mesenchymal markers) [1]: did not suppress enhancement of expression of these
Enhancement of VEGF mRNA expression by EMT induction (VEGF): did not suppress enhancement of VEGF expression
Cmax [2, 7]: 42.5 µM

CC(C(=O)O)c1ccc(-c2ccccc2)c(F)c1 (stereo not shown) [Flurbiprofen, flurbiprofen]
IC50 (RPE cells (ARPE-19); [3]): 32.6 µM

CC(C)Cc1ccc(C(C)C(=O)O)cc1 (stereo not shown) [Ibuprofen, ibuprofen]
IC50 (RPE cells (ARPE-19); [3]): 18 µM

Cc1cccc(Nc2ccccc2C(=O)O)c1C [Mefenamic acid, mefenamic acid]
Enhancement of expression of Fibronectin, Snail and vimentin (mesenchymal markers) [1]: suppressed enhancement of expression of these in a concentration dependent manner
Expression of EMT markers at the time of EMT induction (FIG. 8 to FIG. 12) [1]: significantly suppress expression of EMT markers at the time of EMT induction; also recorded: lower expression of EMT markers at the time of EMT induction
Enhancement of VEGF mRNA expression by EMT induction (VEGF): suppressed enhancement of VEGF expression in a concentration dependent manner
Enhancement of VEGF mRNA expression by EMT induction (VEGF; listed as mefenamic acid): suppress enhancement of mRNA expression of VEGF
IC50 (RPE cells (ARPE-19); [8]): 12.4 µM
Cmax [2, 5]: 38.5 µM
Cmax [2, 7]: 38.5 µM

O=C(Nc1cccc2c(=O)cc(-c3nnn[nH]3)oc12)c1ccc(OCCCCc2ccccc2)cc1 [Pranlukast, pranlukast]
IC50 (RPE cells (ARPE-19); [3]): 1.1 µM

CC1=C(C)C(=O)C(C(CCCCCC(=O)O)c2ccccc2)=C(C)C1=O (stereo not shown) [Seratrodast, seratrodast]
IC50 (RPE cells (ARPE-19); [8]): 54.6 µM
Cmax [2, 5]: 31 µM
Cmax [2, 7]: 31 µM

CC1=C(CC(=O)O)c2cc(F)ccc2/C1=C\c1ccc([S+](C)[O-])cc1 (stereo not shown) [Sulindac, sulindac]
Expression of EMT markers at the time of EMT induction (FIG. 8 to FIG. 12) [1]: significantly suppress expression of EMT markers at the time of EMT induction; also recorded: lower expression of EMT markers at the time of EMT induction
IC50 (RPE cells (ARPE-19); [8]): 35.3 µM
Cmax [2, 5]: 10.1 µM

CC(C(=O)O)c1ccc(C(=O)c2ccccc2)s1 (stereo not shown) [Tiaprofenic acid, tiaprofenic acid]
Expression of EMT markers at the time of EMT induction (FIG. 8 to FIG. 12) [1]: significantly suppress expression of EMT markers at the time of EMT induction; also recorded: lower expression of EMT markers at the time of EMT induction
IC50 (RPE cells (ARPE-19); [8]): 374 µM
Cmax [2, 5]: 69.2 µM

COc1cc(C(=O)NS(=O)(=O)c2ccccc2C)ccc1Cc1cn(C)c2ccc(NC(=O)OC3CCCC3)cc12 [Zafirlukast, zafirlukast]
EMT suppression (FIG. 3 to FIG. 7) [1]: significantly suppress EMT
Expression of EMT markers other than the ten common markers [1]: decrease in expression was observed in MMP3, COL13A1, LAMB3, or CSPG4
Expression of Snail, Slug, CDH3, MMP1, MMP7, COL5A3, COL6A3, LAMC2, HMMR, TNC [1]: suppressed expression
Suppression of drusen-like structure formed in the RPE cell model (RPE cells (ARPE-19); EMT-induced ARPE-19, 48 hours): suppresses a drusen-like structure formed in the RPE cell model in a concentration-dependent manner
IC50 (RPE cells (ARPE-19); [3]): 3.8 µM
IC50 (RPE cells (ARPE-19); [4]): 3.8 µM
Cmax [2, 5]: 0.8 µM
Cmax [2, 6]: 0.8 µM

COc1ccc2c(c1)c(CC(=O)O)c(C)n2C(=O)c1ccc(Cl)cc1 [indomethacin]
Enhancement of expression of Fibronectin, Snail and vimentin (mesenchymal markers) [1]: did not suppress enhancement of expression of these
Enhancement of VEGF mRNA expression by EMT induction (VEGF): did not suppress enhancement of VEGF expression
Cmax [2, 7]: 2.79 µM

Source: patent US10761087B2, “Choroidal neovascularization suppressor or drusen formation suppressor, and method for assessing or screening for same” (Link Genomics, Inc., priority 2015, dated 2020)
